Measured values taken from US12065654B2, “Plants having increased tolerance to herbicides” (BASF SE, priority 2014, dated 2024).

Assays:
Assay type in all cases: in vivo, Glycine max
[1] = test system: soybean plants expressing mutated Arabidopsis HPPD; experiment: Herbicide field trial; settings: 7 DAT with 50 g/ha, post-emergence V2-V3, 1% v/v MSO; preliminary assessment, FIG. 7
Description: (§1) Transgenic plants expressing heterologous HPPD or HST enzymes are tested for tolerance against HPPD-inhibiting herbicides in field experiments.
(§2) A study can be conducted at a field trial location to evaluate the effect of HPPD herbicides on the phenotypic and phenologic characteristics of a soybean variety containing different transgenes.
(§3) The trial is designed as a randomized complete block with a split-plot treatment design. The trial contains mainplots defined by ‘herbicide treatment’ (combination of herbicide and application rate). The herbicide treatments are applied post-emergence at the V2-V3 plant growth stage. […]
(§4) Each plot consists of a single row 1.2 m long and adjacent plots are spaced 0.76 m apart. […] The zygosity of each plant of transgenic event is determined prior to the application of the herbicide treatment.
(§5) The effect of the HPPD herbicide treatments on phenotypic and phenologic characteristics of plants representing each transgenic event and control variety, including tolerance to each herbicide treatment, is assessed during different vegetative and reproductive stages of plant growth.
(§6) An analysis of variance is conducted on data collected from each subplot and a Student's T test or Tukey's test is calculated where appropriate to compare means. […]

[2] = test system: untransformed control soybean plants (Jake); experiment: Herbicide field trial; settings: 7 DAT with 50 g/ha, post-emergence V2-V3, 1% v/v MSO; preliminary assessment, FIG. 7
Description: as §1, §2, §3, §4, §5, §6

[3] = test system: transgenic soybean plants AtHPPD Q293S, event SDS-9928; experiment: Greenhouse testing of soybean plants; settings: soybean AtHPPD Q293S SDS-9928, 14 days, average of 8 T1 individuals
Description: (§7) Transgenic plants expressing heterologous HPPD or HST enzymes are tested for tolerance against HPPD-inhibiting, preferably pyrazolone, isoxazole, or triketone derivative herbicides in greenhouse experiments.
(§8) For post emergence treatment, the test plants are first grown to a height of 3 to 15 cm, depending on the plant habit, and only then treated with the herbicides. For this purpose, the test plants are either sown directly and grown in the same containers, or they are first grown separately and transplanted into the test containers a few days prior to treatment.
(§9) For testing of T0 plants, cuttings can be used. In the case of soybean plants, an optimal shoot for cutting is about 7.5 to 10 cm tall, with at least two nodes present. Each cutting is taken from the original transformant (mother plant) and dipped into rooting hormone powder (indole-3-butyric acid, IBA). The cutting is then placed in oasis wedges inside a bio-dome. Wild type cuttings are also taken simultaneously to serve as controls. The cuttings are kept in the bio-dome for 5-7 days and then transplanted to pots and then acclimated in the growth chamber for two more days. Subsequently, the cuttings are transferred to the greenhouse, acclimated for approximately 4 days, and then subjected to spray tests as indicated.
(§10) Depending on the species, the plants are kept at 10-25° C. or 20-35° C. The test period extends over 3 weeks. During this time, the plants are tended and their response to the individual treatments is evaluated. Herbicide injury evaluations are taken at 2 and 3 weeks after treatment. Plant injury is rated on a scale of 0 to 9, 0 being no injury and 9 being complete death. Tolerance to HPPD-inhibiting, preferably pyrazolone, isoxazole, or triketone derivative herbicides can also be assessed in Arabidopsis. In this case transgenic Arabidopsis thaliana plants are assayed for improved tolerance to HPPD-inhibiting, preferably pyrazolone, isoxazole, or triketone derivative herbicides in 48-well plates. Seeds are surface sterilized by stirring for 5 min in ethanol+water (70+30 by volume), rinsing one time with ethanol+water (70+30 by volume) and two times with a sterile, deionized water. The seeds are resuspended in 0.1% agar dissolved in water (w/v). Four to five seeds per well are plated on solid nutrient medium consisting of half-strength Murashige Skoog nutrient solution, pH 5.8 (Murashige and Skoog (1962) Physiologia Plantarum 15: 473-497). Compounds are dissolved in dimethylsulfoxid (DMSO) and added to the medium prior solidification (final DMSO concentration 0.1%). Multi well plates are incubated in a growth chamber at 22° C., 75% relative humidity and 110 μmol Phot*m−2*s−1 with 14:10 h light:dark photoperiod. Seven to ten days after seeding growth inhibition is evaluated by comparison to wild type plants. Tolerance factor is calculated by dividing the plant growth IC50 value of transgenic plants containing a HPPD and/or HST sequence by that of wildtype plants.
(§11) Transgenic soy plants were sprayed with a range of doses from 6.25-100 g/ha with an HPPD-inhibiting herbicide and injury evaluations were taken two weeks after treatment. […] Compared to the untransformed wild-type, plants comprising polynucleotides encoding for Arabidopsis HPPD wild-type or mutated versions thereof were less susceptible to Inhibitor 1.

[4] = test system: transgenic soybean plants AtHPPD P336A E363Q I393L L385V, event SDS-10085; experiment: Greenhouse testing of soybean plants; settings: soybean AtHPPD P336A E363Q I393L L385V SDS-10085, 14 days, average of 8 T1 individuals
Description: as §7, §8, §9, §10, §11

[5] = test system: transgenic soybean plants AtHPPD, event SDS-10248; experiment: Greenhouse testing of soybean plants; settings: for Injury evaluation (bleaching phenotype, scale of 1-100): soybean AtHPPD SDS-10248, 14 days, average of 8 T1 individuals
Description: as §7, §8, §9, §10, §11

[6] = test system: transgenic soybean plants AtHPPD I393L L385V, event SDS-9908; experiment: Greenhouse testing of soybean plants; settings: soybean AtHPPD I393L L385V SDS-9908, 14 days, average of 8 T1 individuals
Description: as §7, §8, §9, §10, §11

## Cc1c(C(=O)c2cnn(C)c2O)ccc(S(C)(=O)=O)c1C1=NOCC1 [Inhibitor 1, [3-(4,5-dihydroisoxazol-3-yl)-2-methyl-4-methylsulfonyl-phenyl]-(5-hydroxy-1-methyl-pyrazol-4-yl)methanone]
[1]
  field injury (in words): low-moderate injury
[2]
  field injury (in words): severe herbicide damage
[3]; 6.25 g/ha
  Injury evaluation (bleaching phenotype, scale of 1-100): 2%
[3]; 25 g/ha
  Injury evaluation (bleaching phenotype, scale of 1-100): 40%
[3]; 100 g/ha
  Injury evaluation (bleaching phenotype, scale of 1-100): 79%
[4]; 6.25 g/ha
  Injury evaluation (bleaching phenotype, scale of 1-100): 16%
[4]; 25 g/ha
  Injury evaluation (bleaching phenotype, scale of 1-100): 35%
[4]; 100 g/ha
  Injury evaluation (bleaching phenotype, scale of 1-100): 78%
[5]; soy plants with SEQ ID NO:53, 100 g/ha
  fold tolerance compared to untransformed wild-type: 2 fold
[5]; 6.25 g/ha
  Injury evaluation (bleaching phenotype, scale of 1-100): 2%
[5]; 25 g/ha
  Injury evaluation (bleaching phenotype, scale of 1-100): 3%
[5]; 100 g/ha
  Injury evaluation (bleaching phenotype, scale of 1-100): 44%
[6]; 6.25 g/ha
  Injury evaluation (bleaching phenotype, scale of 1-100): 0%
[6]; 25 g/ha
  Injury evaluation (bleaching phenotype, scale of 1-100): 8%
[6]; 100 g/ha
  Injury evaluation (bleaching phenotype, scale of 1-100): 54%
